From article PMC12196810, “A Dual Bioassay for Evaluation of Embryotoxicity and Acute Toxicity of Common Solvents and Surfactants in Artemia salina” (Toxics, 2025)
“Also recorded” adds a separate entry of the source.

How the values were obtained:
Artemia salina cysts [1] = assay: Hatching inhibition test; format: in vivo; settings: for IC50 (hatching inhibition): cysts, 0.1–2.5% (w/v) tested; for inhibition of hatching, in words: 0.1–2.5%
Procedure: SLS was used as positive control and artificial sea water as negative control. The determination was performed according to the protocols described in the literature, with some modifications.
Each sample was performed in duplicate, and artificial sea water was used as control. The hatching process was monitored at 24 and 48 h, and stages 0 and Instar I–III were considered for the quantification. Randomization and blinding were not applied in the assays, as the evaluation of developmental stages is considered objective and unlikely to be influenced by observer bias. The inhibition of the hatching (HI) process was calculated versus the control using the formula presented by Rotini et al.. HI50 was calculated by interpolating on the curves plotted, using the logarithm of concentrations and the hatching inhibition (%) with the least square fit method.

Artemia salina nauplii = assay: Brine shrimp lethality test; settings: for toxicity in the lethality test, in words: 24 and 48 h, 0.05–5% (w/v); for LC50: nauplii, 0.05–5.0% (w/v) tested; for LC50 values: both timepoints (24 and 48 h), summary statement
Procedure: Artemia salina cysts were hatched in beakers filled with artificial sea water at a salinity of 35 g/L, under continuous aeration, and at a temperature of 25 ± 1 °C for 48 h and a light/dark cycle of 16/8 h. The constant conditions were maintained using a plant growth chamber (Sanyo MLR-351 H, San Diego, CA, USA). After hatching, the Artemia nauplii were separated and brought in aerated fresh artificial sea water. A number of ten nauplii were added in tissue culture plates containing 24 wells (Greiner Bio-One, Kremsmünster, Austria), along with the tested solutions [29, 30]. […] Artificial sea water was used as negative control and sodium lauryl sulfate as positive control. The artificial seawater was prepared according to the instructions provided by the Artemia egg manufacturer, using the supplied salts dissolved in distilled water. A total of 5 L was prepared, aerated, and stored at 4 °C, in dark for no more than two weeks. Before use, the artificial seawater was aerated again. […] The lethality values were calculated and were plotted against the logarithm of concentrations, using the least square fit method to obtain lethality curves. […] The photographs were taken using an ODC 825 Microscope Digital Camera (KERN, Balingen, Germany), with a resolution of 5.1 MP and a 1/2.5″ Aptina CMOS sensor, and processed using Microscope-VIS software 2.0 (KERN Balingen, Germany).

Artemia salina cysts [2] = assay: Hatching and development of nauplii (stage groups A–D); format: in vivo; settings: for individuals reaching Group D (Instar I–III): 48 h
Procedure: Each sample was monitored using a stereo-microscope (STMLAB, Monza, Italy) and a bright-field microscope (Euromex, Bscope series, Groningen, The Netherlands) at both moments of determination. After 48 h, a mixture of ethanol and acetic acid in the ratio of 3:1 (v/v) was added to each sample to ensure the preservation for further observations. Depending on the development stage of each sample, the hatching process was divided into four main groups (A–D), and expressed as percents (%). The first group were the unhatched eggs (group A) that remain unchanged between the rehydration operation and the moment of observation; in the second group were the eggs with a broken shell (group B) with evident cracks and modified shape; the third category corresponds to the hatching moment, and it was noted as stage 0 (group C), when the nauplii are pear-shaped or umbrella-shaped and immobile; the fourth stage corresponds to larval stages that comprise the naupliar development stages Instar I–III (group D). All samples were compared to the untreated control to identify non-disruptive concentrations and solvent compatibility for future hatching assays.

[3] = all concentrations (0.1–2.5%), 24 and 48 h
[4] = 48 h, all concentrations (0.05–5%)

Compound: CCN(CC)C(=O)c1cccnc1 [DENA, N,N-diethylnicotinamide]
- IC50 (hatching inhibition) (Artemia salina cysts [1]; 24 h): 0.97%
- IC50 (hatching inhibition) (Artemia salina cysts [1]; 48 h): 1.10%
- inhibition of hatching (Artemia salina cysts [1]; at 2.5%): full inhibition
- toxicity in the lethality test, in words (Artemia salina nauplii): highly toxic
- LC50 (Artemia salina nauplii; 24 h exposure): 0.22%
- lethality (Artemia salina nauplii; 48 h, at 0.1%): 45%
- lethality (Artemia salina nauplii; 48 h, concentrations ≥ 1%): 100%
- LC50 (Artemia salina nauplii; 48 h exposure): 0.05%
- effect on development, in words (Artemia salina cysts [2]; at 2.5%): development was arrested in Groups A and B

Compound: CN(C)C(=O)c1ccccc1 [DMBA, N,N-dimethylbenzamide]
- IC50 (hatching inhibition) (Artemia salina cysts [1]; 24 h): 0.27%
- inhibition of hatching (Artemia salina cysts [1]; 24 h, high concentrations): exceeding 90%
- IC50 (hatching inhibition) (Artemia salina cysts [1]; 48 h): 19.23%
- toxicity in the lethality test, in words (Artemia salina nauplii): highly toxic
- lethality (Artemia salina nauplii; 24 h, down to 0.5%): 100%
- LC50 (Artemia salina nauplii; 24 h exposure): 0.13%
- lethality (Artemia salina nauplii; 48 h, at 0.1%): 75%
- lethality (Artemia salina nauplii; 48 h, concentrations ≥ 1%): 100%
- LC50 (Artemia salina nauplii; 48 h exposure): 0.09%
- LC50 values (Artemia salina nauplii): ≤ 1%
- effect on development, in words (Artemia salina cysts [2]; from 0.5% upward): no significant presence in Group D

Compound: CN(C)C=O [DMF, dimethylformamide]
- toxicity in the lethality test, in words (Artemia salina nauplii): moderate toxicity
- LC50 (Artemia salina nauplii; 24 h exposure): 1.24%
- lethality (Artemia salina nauplii; 48 h, at 1%): up to 80%
- LC50 (Artemia salina nauplii; 48 h exposure): 1.06%

Compound: C[S+](C)[O-] [DMSO, dimethyl sulfoxide]
- inhibition of hatching, in words (Artemia salina cysts [1]; 24 and 48 h): very low or no inhibition; also recorded: minimal or no inhibition
- toxicity in the lethality test, in words (Artemia salina nauplii): moderate-to-low toxicity; also recorded: very low toxicity
- toxicity in the lethality test, in words (Artemia salina nauplii; listed as dimethyl sulfoxide): low toxicity
- lethality (maximum) (Artemia salina nauplii; 24 h, at 0.1%): 25%
- lethality (peak) (Artemia salina nauplii; 48 h, at 0.5%): 45%
- effect on development, in words (Artemia salina cysts [2]; 0.1–2.5%, 24 and 48 h): very low developmental toxicity
- embryos developed fully (Group D) (Artemia salina cysts [2]; at 2.5%): over 80%

Compound: CN(C)C(N)=O [DMU, N,N-dimethylurea]
- inhibition of hatching (Artemia salina cysts [1]; [3]): under 50%
- toxicity in the lethality test, in words (Artemia salina nauplii): moderate toxicity
- LC50 (Artemia salina nauplii; 24 h exposure): 0.94%
- lethality (Artemia salina nauplii; 48 h, concentrations ≥ 1%): 100%
- LC50 (Artemia salina nauplii; 48 h exposure): 0.08%
- individuals reaching Group D (Instar I–III) (Artemia salina cysts [2]; at 0.1%): over 80%

Compound: OCC(O)CO [GLY, glycerol]
- inhibition of hatching, in words (Artemia salina cysts [1]; 24 and 48 h): very low or no inhibition; also recorded: minimal or no inhibition
- toxicity in the lethality test, in words (Artemia salina nauplii): very low toxicity
- toxicity in the lethality test, in words (Artemia salina nauplii; listed as Glycerin): low toxicity
- lethality (Artemia salina nauplii; [4]): up to 40%
- effect on development, in words (Artemia salina cysts [2]; 0.1–2.5%, 24 and 48 h): negligible impact on development

Compound: CC(O)CO (stereo not shown) [PDO, propylene glycol]
- inhibition of hatching, in words (Artemia salina cysts [1]; 24 and 48 h): very low or no inhibition; also recorded: minimal or no inhibition
- toxicity in the lethality test, in words (Artemia salina nauplii): very low toxicity
- toxicity in the lethality test, in words (Artemia salina nauplii; listed as propylene glycol): low toxicity
- lethality (Artemia salina nauplii; 48 h, highest concentration (5%)): 95%
- LC50 (Artemia salina nauplii; 48 h exposure): 1.64%
- effect on development, in words (Artemia salina cysts [2]; 0.1–2.5%, 24 and 48 h): minimal interference

Compound: Cc1ccc(S(=O)(=O)O)cc1.[Na] [PTS, sodium p-toluenesulfonate]
- IC50 (hatching inhibition) (Artemia salina cysts [1]; 24 h): ~2.49%
- inhibition of hatching (Artemia salina cysts [1]; at 2.5%): strong suppression
- toxicity in the lethality test, in words (Artemia salina nauplii): highly toxic
- lethality (Artemia salina nauplii; 24 h, highest concentration (5%)): 100%
- lethality (Artemia salina nauplii; 48 h, at 0.1%): 90%
- lethality (Artemia salina nauplii; 48 h, concentrations ≥ 1%): 100%
- LC50 values (Artemia salina nauplii): ≤ 1%
- individuals reaching Group D (Instar I–III) (Artemia salina cysts [2]; at 1%): over 60%
- effect on development, in words (Artemia salina cysts [2]; at 2.5%): Groups A and B became dominant

Compound: O=S(=O)([O-])c1cccc(S(=O)(=O)[O-])c1.[Na+].[Na+] [SBDS, sodium benzene-1,3-disulfonate]
- inhibition of hatching (Artemia salina cysts [1]; [3]): under 50%
- effect on development, in words (Artemia salina cysts [2]; 0.1–2.5%, 24 and 48 h): low impact on embryonic development

Compound: O=S(=O)([O-])c1ccccc1.[Na+] [SBS, sodium benzenesulfonate]
- inhibition of hatching, in words (Artemia salina cysts [1]; 24 and 48 h): only moderate suppression
- toxicity in the lethality test, in words (Artemia salina nauplii): moderate toxicity
- LC50 (Artemia salina nauplii; 24 h exposure): 0.93%
- lethality (Artemia salina nauplii; 48 h, concentrations ≥ 1%): 100%
- LC50 (Artemia salina nauplii; 48 h exposure): 0.21%
- effect on development, in words (Artemia salina cysts [2]; 0.1–2.5%, 24 and 48 h): moderate developmental delay

Compound: CCCCCCCCCCCCOS(=O)(=O)[O-].[Na+] [SLS, sodium lauryl sulfate, reference compound]
- inhibition of hatching, in words (Artemia salina cysts [1]; 24 and 48 h): complete or near complete inhibition
- toxicity in the lethality test, in words (Artemia salina nauplii): highly toxic; also recorded: such high mortality at all tested concentrations
- lethality (Artemia salina nauplii; 24 h, across all concentrations (0.05–5%)): 100%
- lethality (Artemia salina nauplii; [4]): 100%
- effect on development, in words (Artemia salina cysts [2]; 0.1–2.5%, 24 and 48 h): complete developmental arrest

Compound: NC(N)=O [Urea, urea]
- inhibition of hatching (Artemia salina cysts [1]; [3]): under 50%
- toxicity in the lethality test, in words (Artemia salina nauplii): moderate toxicity
- LC50 (Artemia salina nauplii; 24 h exposure): 1.11%
- LC50 (Artemia salina nauplii; 48 h exposure): 0.74%
- effect on development, in words (Artemia salina cysts [2]; at 2.5%): some developmental delay

Compound: Tween 20
- toxicity in the lethality test, in words (Artemia salina nauplii): such high mortality at all tested concentrations

Compound: Tween 80
- toxicity in the lethality test, in words (Artemia salina nauplii): such high mortality at all tested concentrations

Compound: sodium xylenesulfonate [SXS]
- IC50 (hatching inhibition) (Artemia salina cysts [1]; 24 h): 0.28%
- IC50 (hatching inhibition) (Artemia salina cysts [1]; 48 h): 0.41%
- inhibition of hatching (Artemia salina cysts [1]; at 2.5%): 100%
- LC50 (Artemia salina nauplii; 24 h exposure): 1.01%
- lethality (Artemia salina nauplii; 48 h, concentrations ≥ 1%): 100%
- LC50 (Artemia salina nauplii; 48 h exposure): 0.79%
- LC50 values (Artemia salina nauplii): ≤ 1%
- effect on development, in words (Artemia salina cysts [2]; at 2.5%): no development beyond Group B occurred
